For data set [1] the following is noted: in vivo; cited from earlier work.
Data set [2] has as its system influenza virus H9N2 (A/Chicken/Korea/MS96/96). Briefly: microbe, parasite or virus in culture. Particulars: H9N2, MDCK, in Gallus gallus, read-out: EC50, 50% antiviral concentration.
Data set [3] is described as follows: in vitro. The settings on record: dog, mdck.
Data set [4] addresses neuraminidase (R&D SYSTEM, 4858-NM) of recombinant rvH1N1 influenza A virus of 1918 Spanish flu virus (A/Bervig_Mission/1/18) (Influenza A virus, UniProt Q9IGQ6). Briefly: biochemical. The arrangement: species or system influenza A virus A/Bervig_Mission/1/18 (rvH1N1).
Data set [5] has as its system influenza virus H9N2 (A/Chicken/Korea/MS96/96). Put plainly: microbe, parasite or virus in culture. The settings on record: H9N2, MDCK, in Gallus gallus, read-out: EC50, 50% antiviral concentration. This is another data set of the same source.
A short description of data set [6]: in vitro. The settings on record: dog.
Data set [7] concerns the target neuraminidase of recombinant rvH1N1 influenza A virus (A/Bervig_Mission/1/18) (Influenza A virus, UniProt Q9IGQ6). Briefly: biochemical.
Data set [8] has as its system influenza virus H9N2 (A/Chicken/Korea/MS96/96). Briefly: microbe, parasite or virus in culture. The settings on record: H9N2, MDCK, in Gallus gallus, read-out: EC50, 50% antiviral concentration. The source holds these as a separate data set.
The test system is the same in data set [9]. Briefly: microbe, parasite or virus in culture. Particulars: H9N2, MDCK, in Gallus gallus, read-out: EC50, 50% antiviral concentration. This is another data set of the same source.
For data set [10] the test system is unchanged. Put plainly: in vitro. Particulars: dog.
Data set [11] has the same test system. Put plainly: in vitro. The settings on record: dog. This is another data set of the same source.
For data set [12] the following is noted: in vivo; cited from earlier work. This is another data set of the same source.
In data set [13] the test system is influenza virus H9N2 (A/Chicken/Korea/MS96/96). Particulars: read-out: EC50, 50% antiviral concentration.
For data set [14], the system named is Madin-Darby canine kidney (MDCK, ATCC CCL-34) cell.
The subject of data set [15] is influenza virus H9N2 (A/Chicken/Korea/MS96/96). Particulars: read-out: EC50, 50% antiviral concentration. This is another data set of the same source.
The mark [16] stands for this setting: read-out: Neuraminidase inhibitory activity (IC50) A/Bervig-Mission/1/18 (rvH1N1).

Like-named read-outs stand apart in the source and are kept apart here.

neuraminidase of recombinant rvH1N1 influenza A virus (A/Bervig_Mission/1/18), sequence (Q9IGQ6 whole entry, looked up): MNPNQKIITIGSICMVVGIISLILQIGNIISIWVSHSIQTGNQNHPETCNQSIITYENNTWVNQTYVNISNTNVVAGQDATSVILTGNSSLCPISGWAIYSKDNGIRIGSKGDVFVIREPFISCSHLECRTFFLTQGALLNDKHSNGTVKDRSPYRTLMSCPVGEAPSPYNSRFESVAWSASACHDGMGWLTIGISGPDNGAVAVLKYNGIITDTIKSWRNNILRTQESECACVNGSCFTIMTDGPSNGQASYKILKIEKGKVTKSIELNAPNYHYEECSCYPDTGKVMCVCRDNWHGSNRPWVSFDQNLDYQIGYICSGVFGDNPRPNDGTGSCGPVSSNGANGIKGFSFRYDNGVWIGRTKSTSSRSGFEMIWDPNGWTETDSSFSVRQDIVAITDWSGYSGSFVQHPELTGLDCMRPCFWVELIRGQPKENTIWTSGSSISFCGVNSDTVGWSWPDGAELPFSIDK
neuraminidase (R&D SYSTEM, 4858-NM) of recombinant rvH1N1 influenza A virus of 1918 Spanish flu virus (A/Bervig_Mission/1/18), sequence (Q9IGQ6 36-469 limits assumed): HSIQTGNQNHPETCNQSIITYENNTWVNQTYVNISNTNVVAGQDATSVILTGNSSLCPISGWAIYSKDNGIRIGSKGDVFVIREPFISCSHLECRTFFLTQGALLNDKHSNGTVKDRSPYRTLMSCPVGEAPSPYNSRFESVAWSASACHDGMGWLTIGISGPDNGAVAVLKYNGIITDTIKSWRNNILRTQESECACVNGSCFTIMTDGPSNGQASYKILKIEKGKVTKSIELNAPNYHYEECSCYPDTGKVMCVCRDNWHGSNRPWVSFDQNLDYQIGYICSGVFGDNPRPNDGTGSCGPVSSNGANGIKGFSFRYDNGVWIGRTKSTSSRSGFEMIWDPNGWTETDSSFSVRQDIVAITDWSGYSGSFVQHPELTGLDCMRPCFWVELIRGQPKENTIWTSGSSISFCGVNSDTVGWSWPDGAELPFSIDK

As to `NC12CC3CC(CC(C3)C1)C2` [Amatadine], the side effects result in data set [1] was “severe side effects occur in the nervous system and stomach”.

For the molecule `O=C(/C=C(O)/C=C/c1ccc(O)cc1)/C=C/c1ccc(O)cc1` [Bisdemethoxycurcumin], the EC50 is 182 µM in data set [2] and greater than 200 µM in [5]. The same molecule returned a CC50 in [3] greater than 200 µM. Moreover, in data set [4], the IC50 amounted to 6 µM.

For `COc1cc(/C=C/C(=O)/C=C(O)/C=C/c2ccc(O)c(OC)c2)ccc1O` [Curcumin], the CC50 in data set [6] is 94.1 µM. In addition, the IC50 in data set [7] is 3 µM.

For the molecule `COc1cc(/C=C/C(=O)/C=C(O)/C=C/c2ccc(O)cc2)ccc1O` [Demethoxycurcumin], the CC50 in data set [3] turned out to be 97 µM. Also, the IC50 in [4] stood at 3 µM.

As for `CCOC(=O)C1=C[C@@H](OC(CC)CC)[C@H](NC(C)=O)[C@@H](N)C1` [Oseltamivir], the side effects entry in data set [1] is reported as “severe vomiting”.

For `CC(N)C12CC3CC(CC(C3)C1)C2` (centres unmarked) [Rimatadine], in data set [1], the side effects entry was “severe side effects occur in the nervous system and stomach”.

`CCOC(=O)C1=C[C@@H](OC(CC)CC)[C@H](NC(C)=O)[C@@H](N)C1` [Tamiflu, reference compound]: the EC50 in [8] and in data set [9] was less than 1 µM in each case. In [6], this molecule came in with a CC50 greater than 200 µM. The selectivity ratio in [10] and in [11] was greater than 200 throughout.

Turning to `CC(=O)N[C@H]1[C@H]([C@H](O)[C@H](O)CO)OC(C(=O)O)=C[C@@H]1N=C(N)N` [Zanamivir], the “release from the kidney” value in data set [12] is “quick release from the kidney”.

Turning to Bisdemethoxycurcumin, the figures for the EC50 in data set [13] and in data set [15] were 182 µM and greater than 200 µM, respectively. Besides, the CC50 in [14] was greater than 200 µM. Further, the IC50 in data set [7] (setting [16]) is 6 µM.

Turning to Demethoxycurcumin, the CC50 in [14] was determined as 97 µM. Besides, the IC50 in data set [7] (setting [16]) was 3 µM.

(Values after patent US8545903B2 (priority 2009, dated 2013).)
